In patent US6413530B1, “Pesticidal peptides” (priority 1999, dated 2002):
Read-outs that look alike come from different tables or passages of the source. Where a SMILES comes first, the peptide text is derived from it. Where no end group is shown, it is not given here. [ ]: non-standard residue; d: D form.

How the values were obtained:
[1] = test system: mosquito larvae; assay type: in vivo; conditions: newly hatched larvae on autoclaved yeast 1 mg/ml plus peptide, microtiter plates, 7 days
Experimental: Preferably, the subject peptides have an LD50 against mosquito larvae of less than 3.0 μmole/ml. More preferably, the peptides have an LD50 of less than […], and, most preferably, the peptides have an LD50 of less than 1.0 μmole/ml. As used herein, “LD50” refers to a lethal dose of a peptide able to cause 50% mortality of larvae maintained on a diet of 1 mg/ml autoclaved yeast supplemented with the pesticidal polypeptide. (Borovsky, Dov, and Farida Mahmood [1995] Regulatory Peptides 57:273-281).
TMOF can traverse the gut epithelium, enter the hemolymph and bind a gut receptor (Borovsky, D. and F. Mahmood (1995) “Feeding the mosquito Aedes aegypti with TMOF and its analogs; effect on trypsin biosynthesis and egg development,” Regulatory Peptides 57:273-281.; Borovsky et al. (1994) “Characterization and localization of mosquito-gut receptors for trypsin modulating oostatic factor using complementary peptide immunochemistry” FASEB J. 8:350-355.). This characteristic permits the testing of TMOF and its analogues by feeding them to mosquito and other pest larvae. To find out if truncated TMOF peptides have an effect on larval growth and development, a series of peptides were synthesized and tested by feeding them to mosquito larvae at concentrations of 0 to 5.0 mg/ml (Table 2). Individual, newly hatched Aedes aegypti larvae were maintained in separate microtiter plate wells on a diet of autoclaved yeast (1 mg/ml). The diet was supplemented with TMOF peptides (Table 2). An identical number of larvae maintained on yeast served as a control. […] All control groups survived and larval growth and development was normal. Since larvae swallow only a small portion of the yeast particles adsorbed the peptides, it is assumed that approximately 1 to 20 ng are taken orally at the high concentrations.

[2] = test system: First instar larvae of H. virescens; assay: Feeding of first instar H. virescens on TMOF analogs for 14 days; assay type: in vivo, Heliothis virescens; conditions: for Number of Dead Larvae / Weight (mg) ± S.E.M. / Weight Reduction (%) ± S.E.M.: first instar larvae, 1.6 μg analog, 14 days; for Weight Reduction (%) ± S.E.M.: versus control; for reduction in weight: first instar larvae fed for 14 days
Experimental: (§1) Individual first instar and fourth instar larvae of H. virescens were maintained in separate plastic cups and were fed on artificial diet blocks on which different concentrations of TMOF (0 to 1.6 mg) were adsorbed. Larvae were fed for 5 to 14 days and larval weight and trypsin activity were measured at the end of the experimental periods. […] When first instar larvae were fed for 14 days, an 18% and 26% reduction in weight was observed when analogues 15 and 14 were used (Table 4).

[3] = test system: trypsin biosynthesis; assay: Trypsin biosynthesis in guts of fourth instar H. virescens fed TMOF analogues ([3H]DFP); assay type: in vivo, Heliothis virescens; conditions: for reduction in trypsin biosynthesis: fourth instar larvae fed analogue peptides for 5 days; for Trypsin μg ± S.E.M.: guts removed after 5 days feeding 0.8 μg analog, incubated with [3H]DFP; for Inhibition (% ± S.E.M.) of trypsin: versus control, after 5 days feeding 0.8 μg analog
Experimental: as §1

[4] = test system: fourth instar H. virescens; assay: Feeding TMOF analogues to fourth instar H. virescens: larval weight; assay type: in vivo, Heliothis virescens; conditions: for reduction in larval weight: fourth instar larvae fed analogue peptides for 5 days; for Weight Gain / Weight mg ± S.E.M. End: fourth instar larvae; for Weight Gain: 0.8 μg analog for 5 days; for Weight mg ± S.E.M. End: synthetic food and 0.8 μg analog for 5 days
Experimental: as §1

YAPAP [Compound 8, YAPAP]
LD50 ± S.E.M. ([1]; left half of Table 2): 0.54 ± 0.13 mM

FDPAP [Compound 5, FDPAP]
LD50 ± S.E.M. ([1]; left half of Table 2): 0.37 ± 0.15 mM

DPA [Compound 23]
LD50 ± S.E.M. ([1]; right half of Table 2): 0.4 ± 0.03 Mm

PAA [Compound 37]
LD50 ± S.E.M. ([1]; right half of Table 2): 2.4 ± 0.34 Mm

YSPAP [Compound 18, YSPAP]
Number of Dead Larvae [2]: 0 | Weight (mg) ± S.E.M. [2]: 168 ± 11 mg | Weight Reduction (%) ± S.E.M. [2]: 0% | reduction in trypsin biosynthesis [3]: reduction | Trypsin μg ± S.E.M. [3]: 2.0 ± 0.2 µg | Inhibition (% ± S.E.M.) of trypsin [3]: 19 ± 2% | LD50 ± S.E.M. ([1]; left half of Table 2): 1.4 ± 0.03 mM | reduction in larval weight [4]: reduction | Weight Gain [4]: 151 mg | Weight mg ± S.E.M. End [4]: 188 ± 10.6 mg

YDP [Compound 34]
Number of Dead Larvae [2]: 0 | Weight (mg) ± S.E.M. [2]: 157 ± 10 mg | Weight Reduction (%) ± S.E.M. [2]: 4 ± 0.2% | Trypsin μg ± S.E.M. [3]: 2.1 ± 0.3 µg | Inhibition (% ± S.E.M.) of trypsin [3]: 19 ± 3.2% | LD50 ± S.E.M. ([1]; right half of Table 2): 2.3 ± 0.4 Mm | Weight Gain [4]: 186.3 mg | Weight mg ± S.E.M. End [4]: 223.4 ± 16 mg

YDPFP [Compound 20, YDPFP]
LD50 ± S.E.M. ([1]; left half of Table 2): 1.7 ± 0.4 mM

FDP [Compound 33]
LD50 ± S.E.M. ([1]; right half of Table 2): 1.98 ± 0.6 Mm

(D)YDP [Compound 24]
LD50 ± S.E.M. ([1]; right half of Table 2): 0.51 ± 0.05 Mm

YNPAP [Compound 9, YNPAP]
LD50 ± S.E.M. ([1]; left half of Table 2): 0.55 ± 0.03 mM

YDPAPPPPPP [Compound 1, YDPAP6, reference compound]
LD50 ± S.E.M. ([1]; left half of Table 2): 0.2 ± 0.02 mM

YDPLP [Compound 6, YDPLP]
LD50 ± S.E.M. ([1]; left half of Table 2): 1.5 ± 0.04 mM

C[C@H](NC(=O)[C@@H]1CCCN1C(=O)[C@@H](CC(=O)O)NC(=O)[C@@H](N)Cc1ccc(O)cc1)C(=O)N1CCC[C@H]1C(=O)O [Compound 17, Y(D)DPAP] (H-Y[dD]PAP-OH; N-terminus and C-terminus assumed)
Number of Dead Larvae [2]: 1 | Weight (mg) ± S.E.M. [2]: 152 ± 27 mg | Weight Reduction (%) ± S.E.M. [2]: 7 ± 1% | Trypsin μg ± S.E.M. [3]: 2.1 ± 0.2 µg | Inhibition (% ± S.E.M.) of trypsin [3]: 15 ± 1.3% | Weight Gain [4]: 153 mg | Weight mg ± S.E.M. End [4]: 188 ± 12 mg

YDPAP [Compound 12, YDPAP, reference compound]
LD50 ± S.E.M. ([1]; left half of Table 2): 1.64 ± 0.03 mM

YDAAP [Compound 15, YDAAP]
reduction in weight [2]: 18% | Number of Dead Larvae [2]: 0 | Weight (mg) ± S.E.M. [2]: 133 ± 7 mg | Weight Reduction (%) ± S.E.M. [2]: 18 ± 1% | reduction in trypsin biosynthesis [3]: reduction | Trypsin μg ± S.E.M. [3]: 2.1 ± 0.2 µg | Inhibition (% ± S.E.M.) of trypsin [3]: 17 ± 1.6% | LD50 ± S.E.M. ([1]; left half of Table 2): 1.0 ± 0.18 mM | reduction in larval weight [4]: reduction | Weight Gain [4]: 179 mg | Weight mg ± S.E.M. End [4]: 217 ± 9.5 mg

N[C@@H](Cc1ccc(O)cc1)C(=O)N[C@H](CC(=O)O)C(=O)N1CCC[C@H]1C(=O)O [Compound 22, Y(D)DP] (H-Tyr-[dD]-Pro-OH; N-terminus and C-terminus assumed)
LD50 ± S.E.M. ([1]; left half of Table 2): 0.28 ± 0.01 mM

YSF [Compound 30]
LD50 ± S.E.M. ([1]; right half of Table 2): 1.08 ± 0.12 Mm

APA [Compound 28]
LD50 ± S.E.M. ([1]; right half of Table 2): 1.0 ± 0.07 Mm

YDG [Compound 26]
LD50 ± S.E.M. ([1]; right half of Table 2): 0.95 ± 0.11 Mm

YDPAA [Compound 19, YDPAA]
LD50 ± S.E.M. ([1]; left half of Table 2): 1.6 ± 0.13 mM

ADPAP [Compound 21, ADPAP]
Number of Dead Larvae [2]: 0 | Weight (mg) ± S.E.M. [2]: 141 ± 9 mg | Weight Reduction (%) ± S.E.M. [2]: 7 ± 0.4% | Trypsin μg ± S.E.M. [3]: 2.4 ± 0.3 µg | Inhibition (% ± S.E.M.) of trypsin [3]: 5 ± 0.6% | LD50 ± S.E.M. ([1]; left half of Table 2): 2.0 ± 0.36 mM | Weight Gain [4]: 174.1 mg | Weight mg ± S.E.M. End [4]: 209.7 ± 12 mg

MPDYPPPPP [Compound 2, MPDYP5]
LD50 ± S.E.M. ([1]; left half of Table 2): >3.0 mM

FAP [Compound 39]
LD50 ± S.E.M. ([1]; right half of Table 2): 3.8 ± 0.23 Mm

PAP [Compound 38]
LD50 ± S.E.M. ([1]; right half of Table 2): 3.17 ± 0.14 Mm

YDPAL [Compound 7, YDPAL]
LD50 ± S.E.M. ([1]; left half of Table 2): 0.52 ± 0.03 mM

YAP [Compound 36]
LD50 ± S.E.M. ([1]; right half of Table 2): 2.3 ± 0.5 Mm

FSP [Compound 35]
LD50 ± S.E.M. ([1]; right half of Table 2): 2.3 ± 0.13 Mm

ADP [Compound 40]
LD50 ± S.E.M. ([1]; right half of Table 2): >6.6 Mm

YFPAP [Compound 11, YFPAP]
LD50 ± S.E.M. ([1]; left half of Table 2): 0.64 ± 0.03 mM

YDLAP [Compound 13, YDLAP]
LD50 ± S.E.M. ([1]; left half of Table 2): 0.6 ± 0.05 mM

YDPGP [Compound 16, YDPGP]
Number of Dead Larvae [2]: 2 | Weight (mg) ± S.E.M. [2]: 153 ± 10 mg | Weight Reduction (%) ± S.E.M. [2]: 6 ± 0.4% | Trypsin μg ± S.E.M. [3]: 2.1 ± 0.1 µg | Inhibition (% ± S.E.M.) of trypsin [3]: 17 ± 1% | LD50 ± S.E.M. ([1]; left half of Table 2): 1.1 ± 0.18 mM | Weight Gain [4]: 163.1 mg | Weight mg ± S.E.M. End [4]: 199.8 ± 11 mg

YDF [Compound 27]
LD50 ± S.E.M. ([1]; right half of Table 2): 0.97 ± 0.11 Mm

DAA [Compound 25]
LD50 ± S.E.M. ([1]; right half of Table 2): 0.91 ± 0.06 Mm

YDFAP [Compound 14, YDFAP]
reduction in weight [2]: 26% | Number of Dead Larvae [2]: 1 | Weight (mg) ± S.E.M. [2]: 121 ± 7 mg | Weight Reduction (%) ± S.E.M. [2]: 26 ± 1.5% | reduction in trypsin biosynthesis [3]: reduction | Trypsin μg ± S.E.M. [3]: 2.1 ± 0.2 µg | Inhibition (% ± S.E.M.) of trypsin [3]: 19 ± 1.5% | LD50 ± S.E.M. ([1]; left half of Table 2): 0.74 ± 0.13 mM | reduction in larval weight [4]: reduction | Weight Gain [4]: 164 mg | Weight mg ± S.E.M. End [4]: 201 ± 12 mg

AAP [Compound 29]
LD50 ± S.E.M. ([1]; right half of Table 2): 1.08 ± 0.07 Mm

YDPAF [Compound 3, YDPAF]
LD50 ± S.E.M. ([1]; left half of Table 2): 0.33 ± 0.2 mM

DYP [Compound 31]
Number of Dead Larvae [2]: 1 | Weight (mg) ± S.E.M. [2]: 149 ± 9 mg | Weight Reduction (%) ± S.E.M. [2]: 9 ± 0.5% | Trypsin μg ± S.E.M. [3]: 2.2 ± 0.3 µg | Inhibition (% ± S.E.M.) of trypsin [3]: 14 ± 1.8% | LD50 ± S.E.M. ([1]; right half of Table 2): 1.27 ± 0.17 Mm | Weight Gain [4]: 180.5 mg | Weight mg ± S.E.M. End [4]: 216.7 ± 13 mg

YEPAP [Compound 4, YEPAP]
LD50 ± S.E.M. ([1]; left half of Table 2): 0.35 ± 0.02 mM

YDA [Compound 32]
LD50 ± S.E.M. ([1]; right half of Table 2): 1.6 ± 0.13 Mm
